In US6699682B2, “Assay for inhibitors of fatty-acid amide hydrolase” (The Scripps Research Institute, priority 1995, dated 2004):

What was measured:
[1] = molecular target: T1, FAAH activity of a rat brain membrane fraction (Rattus norvegicus, UniProt P97612); assay type: biochemical; conditions: rat brain membrane fractions, TLC
T1 construct: Cis-9,10-octadecenoamide with rat brain membrane fraction +1 mM phenylmethylsulfonyl fluoride (PMSF); from tissue; host or cells: rat brain membrane fraction
T1 sequence (P97612 1-579): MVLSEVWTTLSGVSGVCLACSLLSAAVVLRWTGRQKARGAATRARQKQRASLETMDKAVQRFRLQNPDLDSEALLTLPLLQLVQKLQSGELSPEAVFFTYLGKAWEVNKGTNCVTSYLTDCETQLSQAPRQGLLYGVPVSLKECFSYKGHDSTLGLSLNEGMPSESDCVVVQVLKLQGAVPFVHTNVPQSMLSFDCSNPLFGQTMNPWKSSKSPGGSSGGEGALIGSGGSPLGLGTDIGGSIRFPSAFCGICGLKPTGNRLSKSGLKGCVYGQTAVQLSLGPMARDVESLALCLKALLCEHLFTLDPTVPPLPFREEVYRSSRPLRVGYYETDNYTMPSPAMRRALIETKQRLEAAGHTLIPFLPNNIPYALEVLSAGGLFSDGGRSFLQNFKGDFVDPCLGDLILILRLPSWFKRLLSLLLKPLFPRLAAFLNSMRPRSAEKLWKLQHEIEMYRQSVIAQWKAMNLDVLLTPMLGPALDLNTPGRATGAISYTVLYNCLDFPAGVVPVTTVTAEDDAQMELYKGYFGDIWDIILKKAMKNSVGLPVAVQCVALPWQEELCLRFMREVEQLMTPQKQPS
Method: In each case the enzymic reaction is performed is a separate reaction vessel and the product is spotted onto a TLC plate.

[2] = test system: male Sprague-Dawley rats; experiment: polysomnographic sleep recordings (EEG/EMG) in rats; assay type: in vivo, rat; conditions: 10 mg ip, recorded four hours
Text: (§1) We have compared cis-9,10-octadecenoamide to vehicle and the synthetic analogs listed in FIG. 1 to estimate the structural specificity of its sleep-inducing potential. […] More particularly, male Sprague-Dawley rats (300 g at the time of surgery) were implanted under halothane anesthesia (2-3%) with a standard set of electrodes for sleep recordings. This included two screw electrodes placed in the parietal bone over the hippocampus to record the subjects electroencephalogram (EEG) and two wire electrodes inserted in the neck musculature to record postural tone through electromyographic activity (EMG). Rats were housed individually with at libitum access to food and water. The dark-light cycle was controlled (12:12, lights on a 10:00 p.m.). One week after the surgery, rats were habituated to the recording conditions for at least three days. Upon the completion of the habituation period, rats received 2 milliliter (ip) of either: vehicle (5% ethanol/saline solution), cis-9,10-octadecenoamide (10 mg), or oleic acid (10 mg). […] Sleep recordings were visually scored and four stages were determined: wakefulness, slow-wave-sleep 1 (SWS1), slow-wave-sleep 2 (SWS2), and rapid eye movement (REM) sleep.
These increases with respect to slow wave sleep (SWS) were at the expense of waking.

[3] = molecular target: T2, recombinant expressed rat FAAH (Rattus norvegicus, UniProt P97612); experiment: FAAH hydrolysis assays with 14C-labeled fatty acid amide substrates (TLC, scintillation counting); assay type: biochemical; conditions: for Rate of Hydrolysis: 35 μg transfected COS-7 cell protein, 5 minutes, 37° C.
T2 construct: expressed in transfected cells; host or cells: COS-7 cells, transient, pcDNA3; dounce-homogenised cell extract
T2 sequence (P97612 1-579): T1 sequence (P97612 1-579)
Method: Therefore, COS-7 cells transfected with the rat FAAH cDNA were assayed for anandamide hydrolase activity. To assess the enzymatic activity of the expressed recombinant fatty acid amide hydrolases of this invention on labeled anandamide, the following enzymatic assay was performed. ^14C-anandamide was synthesized as follows: 12.5 μCi (specific activity of 50 μCi/μM) of ^14C arachidonic acid (Moravek Biochemicals) was dissolved in 100 μl CH2Cl2, cooled to 0° C., and treated with excess oxalyl chloride. The reaction mixture was stirred at 25° C. for 6 hours, after which time the solvent was evaporated. The remaining residue was cooled to 0° C., treated with a large excess of ethanolamine, and stirred at 25° C. for 15 minutes. The reaction mixture was then partitioned between ethyl acetate and 2 M HCl, and the organic layer was washed with water and then evaporated to dryness. The resulting ^14C-anandamide was diluted with unlabeled anandamide to a final specific activity of 5 μCi/μM in ethanol. Approximately 1 μCi of ^14C-anandamide and 20 μl of dounce homogenized COS-7 cell extract were used for each anandamide hydrolase assay as detailed above for the oleamide hydrolase assays. Briefly, FAAH hydrolysis assays were conducted in triplicate with 100 μM substrate, 35 μg of rat transfected COS-7 cell protein for 5 minutes at 37° C. (except in the case of stearic amide, where due to low solubility, 20 μM substrate comparison to oleamide were conducted). Products were separated on TLC as described previously, scraped into scintillation fluid, and radioactivity was quantitated by scintillation counting. Substrate hydrolysis in the presence of equal amounts of untransfected COS-7 cell protein extract served as background control in all cases and was substracted from FAAH hydrolysis rates to give the data as presented below.
To further assess the substrate specificity spectrum of enyzmatic hydolytic activity of the recombinant expressed proteins of this invention, other ^14C-labeled fatty acid amides were synthesized as described in Section B6 and above for ^14C-oleamide, with the exception of anandamide as described.
Where indicated in the table the anandamide and oleamide hydrolysis rates are considered to be 100% of FAAH activity to which other fatty acid amide hydrolysis rates are compared.

[4] = test system: rats; experiment: effect on spontaneous behavior of rats after ip injection (induction of sleep); assay type: in vivo, rat
Method: Synthetic cis-9,10-octadecenoamide was injected (ip) into rats in order to test its effect on spontaneous behavior at different doses: 1 (n=2), 2 (n=2), 5 (n=7), 10 (n=10), 20 (n=2), and 50 (n=2) mg, where n = number of rats tested. […] However, at a threshold of 5 mg and above there was a marked effect consisting of an induction of long-lasting motor quiescence associated with eyes closed, sedated behavior characteristic of normal sleep. Also as with normal sleep, the rats still responded to auditory stimuli with orienting reflex and sustained attention toward the source of stimulation. In addition, motor behavior was impaired. The latency to behavioral sedation following administration was about 4 minutes and subjects were normally active again after 1 hour (5 mg), 2 hour (10 mg), or 2.5 hour (20 mg and 50 mg).
as §1

## CCCCCCCC/C=C\CCCCCCCC(N)=O [cis-9,10-octadecenoamide, Cis-9,10-octadecenoamide]
[1]
  conversion of 14C-cis-9,10-octadecenoamide to oleic acid: Rapid conversion
[2]
  distribution of REM sleep: does not seem to be altered
  mean duration of the SWS individual periods compared to vehicle controls: increase
  total time of slow wave sleep (SWS) compared to vehicle controls: increase in the total time of slow wave sleep (SWS)
[3]
  rate difference between hydrolysis of oleamide and stearic amide: nearly twenty fold
[3]; 20 μM substrate
  % of FAAH activity (oleamide hydrolysis rate = 100%): 100%
  Rate of Hydrolysis: 41 ± 2 nmol/min/mg
[3]; 100 μM substrate
  % of FAAH activity (anandamide hydrolysis rate = 100%): 72.6%
  Rate of Hydrolysis: 242 ± 20 nmol/min/mg
[4]; 10 mg per rat
  duration of the biological (sleep-inducing) effect: two hours
[4]; rats, ip
  threshold dose for induction of long-lasting motor quiescence with eyes closed, sedated behavior: 5 mg
[4]; rats, ip, lower doses 1 and 2 mg
  effect on spontaneous behavior: no overt effect on spontaneous behavior
